The text below walks through data of patent publication US9388193B2, “Dipicolylamine derivatives and their pharmaceutical uses” (National Health Research Institutes, priority 2014, dated 2016).

For one series, the system named is Colo205 cells. The series is described as follows: Cell viability MTS assay, Colo205. It counts as cell-based. Particulars: Homo sapiens, COLO 205, 72 hours incubation. How it is done: (§1) SCM-1, MiaPaca2 and Colo205 cells were grown in RPMI 1640 (Roswell Park Memorial Institute) medium (RPMI; Gibco), supplemented with 10% fetal bovine serum (FBS; Gibco). Detroit551 cells were grown in Dulbecco's modified Eagle's medium (DMEM) supplemented with 10% FBS 50 U/mL of penicillin and streptomycin, and 1% Nonessential amino acids (NEAA; Gibco).
(§2) Zn-DPA conjugates, Zn-DPA-(8), Zn-DPA-(12), Zn-DPA-(25), Zn-DPA-(26), and Zn-DPA-(42) prepared from the corresponding compounds 8, 12, 25, 26, and 42, respectively, were used to inhibit the growth of human cancer cells (SCM-1, Colo205, MiaPaca2) and human embryonic skin fibroblast cells Detroit551 following the procedures described below.
(§3) Cell viability was examined by the MTS assay (Promega, Madison, Wis., USA). More specifically, cells were grown (2500˜3000 cells/well) in a flat bottomed 96-well plate for 24 hours. A medium was added along with a test compound at a pre-determined concentration. The cells were further incubated for 72 hours. At the end of the incubation, the medium was removed and […] with 100 μl of a 3-(4,5-dimethylthiazol-2-yl)-5-(3-carboxymethoxyphenyl)-2-(4-sulfophenyl)-2H-tetrazolium/phenazine methosulfate mixture. The cells were again incubated for 1.5 hours at 37° C. in a humidified incubator with 5% CO2 to allow viable cells to convert the tetrazolium salt into formazan. The conversion was determined by measuring the absorbance at 490 nm using a BioTek PowerWave-X Absorbance Microplate Reader.
(§4) The data obtained were normalized using a vehicle (dimethyl sulfoxide, DMSO)-treated control (100% viability) and a background control (0% viability) to verify growth inhibition. The IC50 value is defined as the concentration of a compound that induces a 50% reduction in cell viability in comparison with a vehicle-treated control. These values were calculated using GraphPad Prism version 4 software (San Diego, Calif., USA).
In general terms: Formazan colour is commonly taken as a measure of viable cells.

A further series concerns SCM-1 cells. Put plainly: Cell viability MTS assay, SCM-1. It counts as cell-based. Particulars: Homo sapiens, 72 hours incubation. How it is done: as §1, §2, §3, §4
The subject of the next series is MiaPaca2 cells. The series is described as follows: Cell viability MTS assay, MiaPaca2. It is filed as cell-based. Particulars: Homo sapiens, MIA PaCa-2, 72 hours incubation. How it is done:
as §1, §2, §3, §4

The test system of series [1] is human embryonic skin fibroblast Detroit 551. Put plainly: Cell viability MTS assay, Detroit 551. Particulars: 72 hours incubation. It counts as cell-based. How it is done:
as §1, §2, §3, §4

The format of series [2] is in vitro ADME. Particulars: mouse, plasma; for Stability (percentage remaining), time = 0: 0 h. How it is done: Plasma Stability of Zn-DPA Conjugates
Zn-DPA conjugates, Zn-DPA-(8), Zn-DPA-(12), Zn-DPA-(25), Zn-DPA-(26), and Zn-DPA-(42) prepared from the corresponding compounds 8, 12, 25, 26, and 42, respectively, were incubated in mouse plasma at 37° C. for up to 24 hours to assess the stability of these conjugates.
A sample was analyzed with a High Performance Liquid Chromatography system to determine the concentration of a test conjugate at one of four time points (i.e., 0, 3 hours, 6 hours, and 24 hours). The percentages of the test conjugate remaining at 3, 6, and 24 hours after incubation in the plasma were determined. A higher percentage indicates greater stability.

A further series relates to Colo205 tumors. The series is described as follows: In vivo antitumor assay, Colo205 tumor xenograft mouse model. More on the design: species or system nude mice. Particulars: compared to SN-38 at 10 mg/kg and CPT-11 at 40 mg/kg. The protocol: (§5) Two Zn-DPA conjugates, Zn-DPA-(26) and Zn-DPA-(42) were subjected to an in vivo antitumor assay against Colo205 or MiaPaca2 tumors growing in nude mice following the procedure described below.
(§6) More specifically, Colo205 or MiaPaca2 cells were cultured and maintained in a flask with a RPMI-1640 medium, which was supplemented with 10% FBS. The cells were harvested and innoculated (1×10^6 cells) subcutaneously into the left flank of a adult male nude mouse. Tumor-bearing mice were grouped at the mean tumor volume of approximately 200 mm^3. Tumor dimensions were measured with a digital caliper, and the tumor volume in mm^3 was calculated by the formula: Volume=(length×width^^2)/2.
(§7) The mice were housed in sterilized cages equipped with an air filter and sterile bedding materials at the Laboratory Animal Center of National Health Research Institutes. All mice were fed with sterilized water and chow at libitum under 12-hour light/12-hour dark cycle throughout the study.
(§8) Several dosages of Zn-DPA-(26) and Zn-DPA-(42), were used in this assay, i.e., 40 mg/kg, 20 mg/kg, and 10 mg/kg, p<0.05 vs. vehicle control by one-way ANOVA analysis and the Newman-Keuls multiple comparison test. […]

Another series concerns MiaPaca2 tumors. The series is described as follows: In vivo antitumor assay, MiaPaca2 tumor xenograft mouse model. More on the design: species or system nude mice. Particulars: i.v., 40, 20 and 10 mg/kg, compared to SN-38 at 10 mg/kg and CPT-11 at 40 mg/kg. How it is done:
as §5, §6, §7, §8

For `CCc1c2c(nc3ccc(OC(=O)N4CCC(N5CCCCC5)CC4)cc13)-c1cc3c(c(=O)n1C2)COC(=O)[C@]3(O)CC` [CPT-11, reference compound], the IC50 (commonly the midpoint of a concentration-inhibition curve) with Colo205 cells was more than 10 µM; with SCM-1 cells it was more than 10 µM; in the series with MiaPaca2 cells it was 3.6 µM; in series [1], more than 10 µM.
Consider `CCc1c2c(nc3ccc(O)cc13)-c1cc3c(c(=O)n1C2)COC(=O)[C@]3(O)CC` [SN-38, reference compound], for which the IC50 is 0.14 µM in the series with Colo205 cells, 0.64 µM in the series with SCM-1 cells, 0.02 µM in the series with MiaPaca2 cells and 4 µM in series [1].
Turning to `CCc1c2c(nc3ccc(OC(=O)c4cccc(NC(=O)NCCCCOc5cc(CN(Cc6ccccn6)Cc6ccccn6)cc(CN(Cc6ccccn6)Cc6ccccn6)c5)c4)cc13)-c1cc3c(c(=O)n1C2)COC(=O)[C@@]3(O)CC` [Zn-DPA-(8)], in series [2], the “Stability (percentage remaining), time = 0” value is 100%; the “Stability (percentage remaining), time = 3 hr” value was 90%; the “Stability (percentage remaining), time = 6 hr” value was 82%. The compound also came in with an IC50 in the series with Colo205 cells of 0.42 µM. This compound displayed an IC50 in the series with SCM-1 cells of 0.64 µM. Also, the IC50 in series [1] turned out to be 9.3 µM.
With `CCc1c2c(nc3ccc(OC(=O)CCSC4CC(=O)N(Cc5ccc(C(=O)NCCCCOc6cc(CN(Cc7ccccn7)Cc7ccccn7)cc(CN(Cc7ccccn7)Cc7ccccn7)c6)cc5)C4=O)cc13)-c1cc3c(c(=O)n1C2)COC(=O)[C@]3(O)CC` (stereo partly drawn) [Zn-DPA-(12)], in series [2], the “Stability (percentage remaining), time = 0” value was 100%; the “Stability (percentage remaining), time = 3 hr” value is listed as 84%; the “Stability (percentage remaining), time = 6 hr” value came to 76%. Further, in the series on Colo205 cells, the IC50 is 0.12 µM. In the series on SCM-1 cells, this compound yielded a half-inhibitory concentration (IC50) of 0.94 µM. For the same compound, the IC50 in series [1] amounted to 2.9 µM.
On to `CCc1c2c(nc3ccc(OC(=O)c4ccc(CN(CCCCOc5cc(CN(Cc6ccccn6)Cc6ccccn6)cc(CN(Cc6ccccn6)Cc6ccccn6)c5)C(=O)c5c(-c6ccccc6Cl)noc5C)cc4)cc13)-c1cc3c(c(=O)n1C2)COC(=O)[C@]3(O)CC` [Zn-DPA-(25)], for which the “Stability (percentage remaining), time = 0” value in series [2] turned out to be 100%. For the same compound, the “Stability (percentage remaining), time = 3 hr” value in series [2] came out at 90%. In series [2], the “Stability (percentage remaining), time = 6 hr” value is reported as 85%. Besides, the IC50 in the series with Colo205 cells was found to be 0.58 µM; in the series with SCM-1 cells, 1 µM; in series [1], 7.2 µM.
`CCc1c2c(nc3ccc(OC(=O)c4ccc(CN(CCCCOc5cc(CN(Cc6ccccn6)Cc6ccccn6)cc(CN(Cc6ccccn6)Cc6ccccn6)c5)C(=O)C5(c6ccc(Cl)cc6)CCCCC5)cc4)cc13)-c1cc3c(c(=O)n1C2)COC(=O)[C@]3(O)CC` [Zn-DPA-(26)]: the “Stability (percentage remaining), time = 0” value in series [2] is given as 100%. Also, in series [2], the “Stability (percentage remaining), time = 3 hr” value was 99%. The “Stability (percentage remaining), time = 6 hr” value in series [2] is listed as 97%. For the same compound, the IC50 with Colo205 cells is 1.1 µM; with SCM-1 cells, 2.6 µM; in the series on MiaPaca2 cells, 0.12 µM; in series [1] it was more than 10 µM. The antitumor activity entry with Colo205 tumors (i.v., dosages of 10 mg/kg and 40 mg/kg) is reported as “much higher antitumor activities”.
`CCc1c2c(nc3ccc(OC(=O)c4ccc(CN(CCOCCOCCNC(=O)c5ccc(CN(CCCCOc6cc(CN(Cc7ccccn7)Cc7ccccn7)cc(CN(Cc7ccccn7)Cc7ccccn7)c6)C(=O)C6(c7ccc(Cl)cc7)CCCCC6)cc5)C(=O)C5(c6ccc(Cl)cc6)CCCCC5)cc4)cc13)-c1cc3c(c(=O)n1C2)COC(=O)[C@]3(O)CC` [Zn-DPA-(42)]: the “Stability (percentage remaining), time = 0” value in series [2] was 100%. Also, the “Stability (percentage remaining), time = 3 hr” value in series [2] worked out at 99%. Further, the “Stability (percentage remaining), time = 6 hr” value in series [2] is reported as 98%. Further, the values for the IC50 (in the series on Colo205 cells; in the series on MiaPaca2 cells; in series [1]) were 3.7 µM, 0.55 µM and more than 10 µM, respectively. For the same compound, the antitumor activity result is “antitumor activities in a dose-dependent manner and much higher antitumor activities” in the series with Colo205 tumors (i.v., 40, 20 and 10 mg/kg); “antitumor activities in a dose-dependent manner and much higher antitumor activities” in the series with MiaPaca2 tumors.
